Assay results taken from patent US20260297031A1, “HYDROXYLAMINE-BASED BCR-ABL1 INHIBITORS FOR TREATMENT OF CANCER” (University of Georgia Research Foundation, Inc., priority 2023, published 2026).
Like-named read-outs stand apart in the source and are kept apart here.

Assays:
[1] = Plasma protein binding by equilibrium dialysis, rat plasma; type: in vitro ADME; conditions: plasma, 5 μM, read-out: fu, plasma %
Experimental: Plasma Protein Binding by Equilibrium Dialysis (Independently Performed by Pharmaron Inc., Ninqbo, CN)
Initially, 1 mM solutions of test compounds and the control compound (Ketoconzaole) were prepared in DMSO. After this, dialysis membranes were soaked in ultrapure water for 60 min to separate strips, followed by 20% aq. ethanol for 20 min, and finally in a dialysis buffer for 20 min. […] After this, 597 μL of blank plasma solution followed by 3 μL of the working solutions of either test compounds or control compound were added to a new plastic plate or separate plastic tube and the solutions were vortexed at 1,000 rpm for 2 min. Immediately after this, 50 μL of spiked plasma solution suspension was transferred to a 96-well plate to act as T=0 control. The remaining samples were treated in the same manner, whereby all remaining spiked plasma solutions were added to the incubator for the duration of the study.
Cells were then loaded with 120 μL of the plasma samples and dialyzed against an equal volume of dialysis buffer (PBS). […] At the end of incubation, the lid was removed and 50 μL of post-dialysis samples were removed from both buffer and plasma solution chambers into a separate 96-well plate for analysis. The plasma solutions (50 μL) were then added to the buffer samples along with an equal volume of PBS (50 μL) to the collected plasma solution samples. The plate was shaken at 1,000 rpm for 2 min and 400 μL of acetonitrile containing an appropriate internal standard was added to precipitate protein and release compound. The samples were then vortexed at 1,000 rpm for an additional 10 min followed by centrifugation at 3,220 g for 30 min. […] The samples were analyzed by LC-MS/MS and 100 μL of distilled water was added to each sample prior to analysis.
Concentrations of test compounds and control compound in buffer and plasma solution chambers was determined and percentages of test compounds and control compound bound using the following equations (mean of n=2 replicates): […]

[2] = Metabolic stability in mouse hepatocytes; type: in vitro ADME; conditions: read-out: Remaining Percentages
Experimental: All calculations were carried out using Microsoft Excel. Peak areas were determined from extracted ion chromatograms.

COc1cc(Nc2c(C#N)cnc3cc(OCCON4CCN(C)CC4)c(OC)cc23)c(F)cc1Cl [Compound 15, 4-((4-chloro-2-fluoro-5-methoxyphenyl)amino)-6-methoxy-7-(2-((4-methylpiperazin-1-yl)oxy)ethoxy)quinoline-3-carbonitrile] gave a fraction unbound at 6 h, 5 µM [1] of 0.049.
With COc1cc(Cl)ccc1Nc1c(C#N)cnc2cc(OCCON3CCN(C)CC3)c(OC)cc12 [Compound 20, 4-((4-Chloro-2-methoxyphenyl)amino)-6-methoxy-7-(2-((4-methylpiperazin-1-yl)oxy)ethoxy)quinoline-3-carbonitrile] the remaining at 0.5 min ([2]; 0.5 min) was 100%, the remaining at […] ([2]; 15 min) was 55.5% and the remaining at 0.5 h ([2]; 30 min) was 28.6%. For the same molecule, the remaining at 1 h ([2]; 60 min) was 13.3%, the remaining at […] ([2]; 90 min, BLOD = below level of detection) was 6.75% and the remaining at 2 h ([2]; 120 min, BLOD = below level of detection) was 2.89%.
